Test results as given in US11390604B2 (Hoffmann-La Roche Inc., priority 2019, dated 2022).
Counter-ions that a name gives are not always drawn. Like-named read-outs stand apart in the source and are kept apart here.

Test system: Acinetobacter baumannii ATCC 17961
Assay: Antimicrobial susceptibility testing: 90% growth inhibitory concentration (IC90) determination
Format: cell-based
Outline: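 Growth was followed kinetically by OD600 at 20-min intervals for 16 h at 35±2 °C, with ~5×10^5 CFU/ml in Iso-Sensitest broth. Compounds were tested as twofold dilutions (e.g. 50–0.097 μM final). The concentration giving 90% inhibition of log-phase growth was reported.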

[1] = ATCC17961, Acinetobacter baumannii ATCC 17961, Iso-Sensitest broth, read-out: ATCC 17961 IC90

| IC90 [1] | Compound | IC90 (Acinetobacter baumannii, ATCC17961, read-out: ATCC 17961 IC90, Acinetobacter baumannii ATCC 17961, Iso-Sensitest broth) |
| --- | --- | --- |
| 243 nM | C=CCn1cc(-c2cnc(C(=O)Nc3ccc(C(=O)NC4C5CN(C(=O)C6CCNCC6)CC54)c(Cl)c3)n2C)c(C(F)(F)F)n1 (centres unmarked) [Example 215, 5-(1-allyl-3-(trifluoromethyl)-1H-pyrazol-4-yl)-N-(3-chloro-4-((3-(piperidine-4-carbonyl)-3-azabicyclo[3.1.0]hexan-6-yl)carbamoyl)phenyl)-1-methyl-1H-imidazole-2-carboxamide formate] |  |
| 348 nM | Cn1c(-c2cn(CC(F)F)nc2C(F)(F)F)cnc1C(=O)Nc1ccc(S(=O)(=O)N2CCN(C(=O)CN)CC2)cc1 [Example 282, 5-(1-(2,2-difluoroethyl)-3-(trifluoromethyl)-1H-pyrazol-4-yl)-N-(4-((4-glycylpiperazin-1-yl)sulfonyl)phenyl)-1-methyl-1H-imidazole-2-carboxamide formate] |  |
| 499 nM | Cn1c(-c2cn(C3CC3C(F)(F)F)nc2C(F)(F)F)cnc1C(=O)Nc1ccc(C(=O)N2CCN(C(=O)C3CCNCC3)CC2)c(Cl)c1 (centres unmarked) [Example 379, N-(3-chloro-4-(4-(piperidine-4-carbonyl)piperazine-1-carbonyl)phenyl)-1-methyl-5-(3-(trifluoromethyl)-1-(2-(trifluoromethyl)cyclopropyl)-1H-pyrazol-4-yl)-1H-imidazole-2-carboxamide formate] |  |
| 339 nM | Cn1c(-c2cn(C3CCC3)nc2C(F)(F)F)cnc1C(=O)Nc1ccc(C(=O)N2CCN(C(=O)C3CCNCC3)CC2)c(Cl)c1 [Example 10, N-(3-chloro-4-(4-(piperidine-4-carbonyl)piperazine-1-carbonyl)phenyl)-5-(1-cyclobutyl-3-(trifluoromethyl)-1H-pyrazol-4-yl)-1-methyl-1H-imidazole-2-carboxamide hydrochloride] |  |
| 202 nM | Cn1c(-c2cn(C3CC3)nc2C(F)(F)F)cnc1C(=O)Nc1ccc(C(=O)N2CCC(C3CNC3)CC2)c(Cl)c1 [Example 197, N-(4-(4-(azetidin-3-yl)piperidine-1-carbonyl)-3-chlorophenyl)-5-(1-cyclopropyl-3-(trifluoromethyl)-1H-pyrazol-4-yl)-1-methyl-1H-imidazole-2-carboxamide formate] |  |
| 1800 nM | Cc1nc(Cn2cc(-c3cnc(C(=O)Nc4ccc(C(=O)NC5CC(N)C5)c(Cl)c4)n3C)c(C(F)(F)F)n2)cs1 (centres unmarked) [Example 124, N-[4-[(3-aminocyclobutyl)carbamoyl]-3-chlorophenyl]-1-methyl-5-[1-[(2-methyl-1,3-thiazol-4-yl)methyl]-3-(trifluoromethyl)pyrazol-4-yl]imidazole-2-carboxamide;hydrochloride] |  |
| 287 nM | Cn1c(-c2cn(CC(F)F)nc2C(F)(F)F)cnc1C(=O)Nc1ccc(S(=O)(=O)N2CCNCC2)cc1 [Example 244, 5-(1-(2,2-difluoroethyl)-3-(trifluoromethyl)-1H-pyrazol-4-yl)-1-methyl-N-(4-(piperazin-1-ylsulfonyl)phenyl)-1H-imidazole-2-carboxamide hydrochloride] |  |
| 925 nM | C#CCn1cc(-c2cnc(C(=O)Nc3ccc(C(=O)NC[C@@H]4CNC[C@@H]4O)c(Cl)c3)n2C)c(C(F)(F)F)n1 [Example 33, N-(3-chloro-4-((((3S,4R)-4-hydroxypyrrolidin-3-yl)methyl)carbamoyl)phenyl)-1-methyl-5-(1-(prop-2-yn-1-yl)-3-(trifluoromethyl)-1H-pyrazol-4-yl)-1H-imidazole-2-carboxamide hydrochloride] |  |
| 396 nM | Cn1c(-c2cn(C3CC3)nc2C(F)(F)F)cnc1C(=O)Nc1ccc(C(=O)N2CCN(C(=O)C3(O)CCNC3)CC2)c(Cl)c1 (centres unmarked) [Example 318, N-[3-chloro-4-[4-(3-hydroxypyrrolidine-3-carbonyl)piperazine-1-carbonyl]phenyl]-5-[1-cyclopropyl-3-(trifluoromethyl)pyrazol-4-yl]-1-methylimidazole-2-carboxamide;hydrochloride] |  |
| 192 nM | C#CCn1cc(-c2cnc(C(=O)Nc3ccc(C(=O)N4CCN(C(=O)NCC5(O)CNC5)CC4)c(Cl)c3)n2C)c(C(F)(F)F)n1 [Example 52, 4-(2-chloro-4-(1-methyl-5-(1-(prop-2-yn-1-yl)-3-(trifluoromethyl)-1H-pyrazol-4-yl)-1H-imidazole-2-carboxamido)benzoyl)-N-((3-hydroxyazetidin-3-yl)methyl)piperazine-1-carboxamide hydrochloride] |  |
| 365 nM | CN1CCN(C(=O)N2CCN(C(=O)c3ccc(NC(=O)c4ncc(-c5cn(C6CC6)nc5C(F)(F)F)n4C)cc3Cl)CC2)CC1 [Example 297, N-(3-chloro-4-(4-(4-methylpiperazine-1-carbonyl)piperazine-1-carbonyl)phenyl)-5-(1-cyclopropyl-3-(trifluoromethyl)-1H-pyrazol-4-yl)-1-methyl-1H-imidazole-2-carboxamide] |  |
| 350 nM | CCn1cc(-c2cnc(C(=O)Nc3ccc(C(=O)NCCCCCCN)c(Br)c3)n2C)c(C(F)(F)F)n1 [Example 284, N-(4-((6-aminohexyl)carbamoyl)-3-bromophenyl)-5-(1-ethyl-3-(trifluoromethyl)-1H-pyrazol-4-yl)-1-methyl-1H-imidazole-2-carboxamide hydrochloride] |  |
| 884 nM | Cc1cc(NC(=O)c2ncc(-c3cn(CC#N)nc3C(F)(F)F)n2C)cc(F)c1C(=O)N1CCN(C(=O)[C@H]2C[C@H](N)C2)CC1 [Example 118, N-[4-[4-(3-aminocyclobutanecarbonyl)piperazine-1-carbonyl]-3-fluoro-5-methylphenyl]-5-[1-(cyanomethyl)-3-(trifluoromethyl)pyrazol-4-yl]-1-methylimidazole-2-carboxamide] |  |
| 309 nM | Cn1c(-c2cn(CC#N)nc2C(F)(F)F)cnc1C(=O)Nc1ccc(C(=O)N[C@H]2C[C@@H](NC(=O)[C@@H]3CCNC3)C2)c(Cl)c1 [Example 253, N-[3-chloro-4-[[3-[[(3R)-pyrrolidine-3-carbonyl]amino]cyclobutyl]car-bamoyl]phenyl]-5-[1-(cyanomethyl)-3-(trifluoromethyl)pyrazol-4-yl]-1-methyl-imidazole-2-carboxamide; formic acid] |  |
| 888 nM | CCc1cc(NC(=O)c2ncc(-c3cn(CC#N)nc3C(F)(F)F)n2C)ccc1C(=O)N1CCN(C(=O)N2CCC(CN)C2)CC1 (centres unmarked) [Example 138, N-[4-[4-[3-(aminomethyl)pyrrolidine-1-carbonyl]piperazine-1-carbonyl]-3-ethylphenyl]-5-[1-(cyanomethyl)-3-(trifluoromethyl)pyrazol-4-yl]-1-methylimidazole-2-carboxamide;formic acid] |  |
|  | CC(C)Cn1cc(-c2cnc(C(=O)Nc3ccc(C(=O)N4CCN(C(=O)N[C@H]5C[C@@H](N)C5)CC4)c(Cl)c3)n2C)c(C(F)(F)F)n1 [Example 292, rac-N-((1s,3s)-3-aminocyclobutyl)-4-(2-chloro-4-(5-(1-isobutyl-3-(trifluoromethyl)-1H-pyrazol-4-yl)-1-methyl-1H-imidazole-2-carboxamido)benzoyl)piperazine-1-carboxamide hydrochloride] | 361 nM |
| 64 nM | Cn1c(-c2cn([C@@H]3CC3(F)F)nc2C(F)(F)F)cnc1C(=O)Nc1ccc(C(=O)N[C@H]2[C@@H]3CN(C(=O)N[C@@H]4CNC[C@H]4O)C[C@@H]32)c(Cl)c1 [Example 181, (1S,5R)-6-[[2-chloro-4-[[5-[1-[(1R)-2,2-difluorocyclopropyl]-3-(trifluoromethyl)pyrazol-4-yl]-1-methyl-imidazole-2-carbonyl]amino]benzoyl]amino]-N-[(3R,4R)-4-hydroxypyrrolidin-3-yl]-3-azabicyclo[3.1.0]hexane-3-carboxamide; Hydrochloride] |  |
